Experimental data from PubChem BioAssay (NCI).
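96-well plates; 48 h exposure; 5 concentrations. Endpoints by linear interpolation between flanking doses. Not reached: highest tested concentration assigned. The concentration for full growth arrest is given as TGI.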

Experiments:
Assay in all cases: inhibition of tumour cell growth, NCI panel, 48 h
[1] = test system: A498 renal
[2] = test system: A549 NSCLC
[3] = test system: ACHN renal
[4] = test system: CAKI-1 renal
[5] = test system: CCRF-CEM leukemia
[6] = test system: COLO 205 colon
[7] = test system: DU-145 prostate
[8] = test system: HL-60(TB) leukemia
[9] = test system: HT29 colon
[10] = test system: MCF7 breast
[11] = test system: MDA-N
[12] = test system: MOLT-4 leukemia
[13] = test system: NCI-H226 lung
[14] = test system: NCI-H23 lung
[15] = test system: NCI-H522 lung
[16] = test system: NCI/ADR-RES ovarian
[17] = test system: OVCAR-5 ovarian
[18] = test system: RPMI-8226 leukemia
[19] = test system: U251 CNS
[20] = test system: UACC-257 melanoma

`O=C(NNC(=S)Nc1ccc(Cl)cc1)C12CC3CC(CC(C3)C1)C2` was tested, and the TGI [1] was 22.9 µM, the TGI [2] was 24.9 µM and the TGI [3] was 29 µM. It also gave a TGI [4] of 49.5 µM, a TGI [5] of 11.6 µM and a TGI [6] of 18.3 µM. It also gave a TGI [7] of 43.6 µM, a TGI [8] of 5.48 µM and a TGI [9] of 21.4 µM. It also gave a TGI [10] of over 56.5 µM, a TGI [11] of 43.6 µM and a TGI [12] of 10.7 µM. The TGI [13] was 31.6 µM, the TGI [14] was 54.7 µM and the TGI [15] was 20.2 µM. For the same molecule, the TGI [16] was 14.8 µM, the TGI [17] was 81.1 µM and the TGI [18] was 2.28 µM. For the same molecule, the TGI [19] was 24.8 µM and the TGI [20] was over 57.3 µM.

`CN1CN(c2ccccc2)C2(CCN(C3Nc4ccccc4O3)CC2)C1=O` (stereo not given) gave a TGI [1] of 42.1 µM, a TGI [2] of over 100 µM and a TGI [3] of 55.9 µM. It also gave a TGI [4] of over 100 µM, a TGI [5] of 57.6 µM and a TGI [6] of 30.1 µM. It also gave a TGI [7] of 60.1 µM, a TGI [8] of 43.5 µM and a TGI [9] of 33 µM. For the same molecule, the TGI [10] was 38.6 µM, the TGI [11] was 49.1 µM and the TGI [12] was 92.2 µM. For the same molecule, the TGI [13] was 50.3 µM, the TGI [14] was 54.9 µM and the TGI [15] was 39.2 µM. The TGI [16] was 56.1 µM, the TGI [17] was 48.2 µM and the TGI [18] was 58 µM. The TGI [19] was 33.3 µM and the TGI [20] was 33.7 µM.

`Cc1ccc(NC(=O)CC(=O)N2N=C(N3CCCCC3)CC2c2ccccc2)cc1` (stereo not given) showed a TGI [1] of over 100 µM, a TGI [2] of over 100 µM and a TGI [3] of over 100 µM. It also gave a TGI [4] of over 100 µM, a TGI [5] of over 100 µM and a TGI [6] of over 100 µM. The TGI [7] was over 100 µM, the TGI [8] was over 100 µM and the TGI [9] was over 100 µM. It also gave a TGI [10] of over 100 µM, a TGI [11] of over 100 µM and a TGI [12] of over 100 µM. The TGI [13] was over 100 µM, the TGI [14] was over 100 µM and the TGI [15] was over 100 µM. It also gave a TGI [16] of over 100 µM, a TGI [17] of over 100 µM and a TGI [19] of over 100 µM. The TGI [20] was over 100 µM.

Work on `CCOC(CN(C)C(=O)Nc1ccc(Cl)c(Cl)c1)OCC` yielded a TGI [1] of over 10 µM, a TGI [2] of over 10 µM and a TGI [3] of over 10 µM. It also gave a TGI [4] of over 10 µM, a TGI [5] of over 10 µM and a TGI [6] of over 10 µM. It also gave a TGI [7] of over 10 µM, a TGI [8] of over 10 µM and a TGI [9] of over 10 µM. The TGI [10] was over 10 µM, the TGI [11] was over 10 µM and the TGI [12] was over 10 µM. It also gave a TGI [13] of over 10 µM, a TGI [14] of over 10 µM and a TGI [15] of over 10 µM. It also gave a TGI [16] of over 10 µM, a TGI [18] of over 10 µM and a TGI [19] of over 10 µM. It also gave a TGI [20] of over 10 µM.

For `Cc1c2oc3c(C)cnc(C(=O)NC4C(=O)NC(C(C)C)C(=O)N5CCCC5C(=O)N(C)CC(=O)N(C)C(C(C)C)C(=O)OC4C)c3nc-2c(C(=O)NC2C(=O)NC(C(C)C)C(=O)N3CCCC3C(=O)N(C)CC(=O)N(C)C(C(C)C)C(=O)OC2C)c(N)c1=O` (stereo not given), the TGI [1] was 29.8 µM, the TGI [2] was over 75 µM and the TGI [3] was over 64.6 µM. The TGI [4] was 73 µM, the TGI [5] was 5.44 µM and the TGI [6] was 14.2 µM. It also gave a TGI [7] of over 75 µM, a TGI [8] of over 26 µM and a TGI [9] of over 75 µM. For the same molecule, the TGI [10] was over 75 µM, the TGI [11] was 16.9 µM and the TGI [12] was 0.675 µM. It also gave a TGI [13] of 23.8 µM, a TGI [14] of over 54.8 µM and a TGI [15] of 18 µM. The TGI [16] was over 75 µM, the TGI [17] was over 75 µM and the TGI [19] was over 38 µM. It also gave a TGI [20] of 33.8 µM.

In the case of `O=c1oc2ccc3ccccc3c2cc1-c1nc(-c2ccc([N+](=O)[O-])cc2)n[nH]1`, the TGI [1] is reported as over 100 µM, the TGI [2] is reported as over 100 µM and the TGI [3] is reported as over 100 µM. The TGI [4] was over 100 µM, the TGI [5] was over 100 µM and the TGI [6] was over 100 µM. For the same molecule, the TGI [7] was over 100 µM, the TGI [8] was over 100 µM and the TGI [9] was over 100 µM. The TGI [10] was over 100 µM, the TGI [11] was over 100 µM and the TGI [12] was over 100 µM. The TGI [14] was 45.8 µM, the TGI [15] was over 100 µM and the TGI [16] was over 100 µM. The TGI [17] was over 100 µM, the TGI [18] was over 100 µM and the TGI [19] was over 100 µM. The TGI [20] was over 100 µM.

Work on `CC(O)CC(=O)CO[C@H]1[C@H](O)[C@@H](O)[C@@H](O)[C@@H]2NC(=O)c3c(cc4c(c3O)OCO4)[C@H]21` (stereo not given in full) yielded a TGI [1] of 0.072 µM, a TGI [2] of 0.352 µM and a TGI [3] of 0.613 µM. It also gave a TGI [6] of 0.135 µM, a TGI [7] of 0.0818 µM and a TGI [8] of 0.2 µM. The TGI [9] was 0.179 µM, the TGI [10] was 0.461 µM and the TGI [11] was 0.446 µM. For the same molecule, the TGI [12] was 0.321 µM, the TGI [13] was 1.49 µM and the TGI [14] was 0.457 µM. The TGI [15] was 0.0962 µM, the TGI [16] was 27.6 µM and the TGI [17] was 0.48 µM. For the same molecule, the TGI [18] was 0.147 µM, the TGI [19] was 0.307 µM and the TGI [20] was 1.02 µM.

`CCOc1cc(/C=N/c2nc3cc4sc(/N=C/c5ccc(O)c(OCC)c5)nc4cc3s2)ccc1O` gave a TGI [1] of over 100 µM, a TGI [2] of over 100 µM and a TGI [3] of over 100 µM. The TGI [4] was over 100 µM, the TGI [6] was over 100 µM and the TGI [7] was over 100 µM. For the same molecule, the TGI [8] was 19.9 µM, the TGI [9] was over 100 µM and the TGI [10] was over 100 µM. It also gave a TGI [11] of over 100 µM, a TGI [12] of over 100 µM and a TGI [13] of over 100 µM. It also gave a TGI [14] of over 100 µM, a TGI [15] of over 100 µM and a TGI [16] of over 100 µM. For the same molecule, the TGI [17] was over 100 µM, the TGI [18] was over 100 µM and the TGI [19] was over 100 µM. For the same molecule, the TGI [20] was over 100 µM.

`CC1=NN(c2cccc(Cl)c2)C2(C1=Cc1cccs1)C(Cl)C(=O)N2c1nc2ccccc2s1` (stereo not given) was tested, and the TGI [1] was 43.5 µM, the TGI [2] was 63.7 µM and the TGI [3] was 50.6 µM. For the same molecule, the TGI [4] was 84.5 µM, the TGI [7] was over 100 µM and the TGI [8] was 61 µM. It also gave a TGI [9] of 46 µM, a TGI [10] of 69.5 µM and a TGI [11] of 48.1 µM. It also gave a TGI [12] of 57.1 µM, a TGI [13] of 53.5 µM and a TGI [14] of 47.2 µM. It also gave a TGI [15] of 38.2 µM, a TGI [16] of 45.4 µM and a TGI [17] of 41.9 µM. It also gave a TGI [18] of 43.6 µM, a TGI [19] of 30.7 µM and a TGI [20] of 57.3 µM.

`Cc1ccc(S(=O)(=O)NN=C2C(C)(C)CC2(C)C)cc1` showed a TGI [1] of over 100 µM, a TGI [2] of over 100 µM and a TGI [3] of over 100 µM. For the same molecule, the TGI [4] was over 100 µM, the TGI [5] was over 100 µM and the TGI [6] was over 100 µM. It also gave a TGI [7] of over 100 µM, a TGI [8] of over 100 µM and a TGI [9] of over 100 µM. The TGI [10] was over 100 µM, the TGI [11] was over 100 µM and the TGI [12] was over 100 µM. The TGI [13] was over 100 µM, the TGI [14] was over 100 µM and the TGI [15] was over 100 µM. The TGI [16] was over 100 µM, the TGI [17] was over 100 µM and the TGI [19] was over 100 µM. The TGI [20] was over 100 µM.
